Experimental data from patent publication US9809640B2, “ApoE peptide dimers and uses thereof” (priority 2010, dated 2017).
Positions of bridges follow the written chain, without caps; N, C: chain ends. Chains are numbered I, II in the order given.

Assays:
[1] = target: T1, I2PP2A (SET) / PP2A catalytic subunit (Homo sapiens, UniProt Q01105); test: Co-immunoprecipitation of I2PP2A (SET) with PP2A catalytic subunit in MB231 cells; assay type: cell-based; conditions: 0.1 or 1 μM pre-treatment
T1 construct: endogenous in cells; host or cells: MDA-MB-231
T1 sequence (Q01105 2-290 limits assumed): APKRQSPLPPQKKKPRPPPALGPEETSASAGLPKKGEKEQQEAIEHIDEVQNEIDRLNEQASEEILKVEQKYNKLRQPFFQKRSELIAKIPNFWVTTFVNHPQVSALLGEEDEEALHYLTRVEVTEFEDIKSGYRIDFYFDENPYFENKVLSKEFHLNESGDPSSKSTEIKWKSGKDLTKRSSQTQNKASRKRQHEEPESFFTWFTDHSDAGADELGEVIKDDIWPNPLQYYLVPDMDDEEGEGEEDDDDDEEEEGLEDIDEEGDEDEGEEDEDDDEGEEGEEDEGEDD
Source text: (§1) FIG. 12A: Total PP2A activity immunoprecipitated from MDA-MB-231 cells treated with EGF and increasing concentrations of COG445. FIG. 12B: Western blot and densitometry analysis of total c-myc protein levels in U87 cells treated with the indicated concentrations of COG445 in the presence or absence of okadaic acid. FIG. 12C: Immunoprecipitation of the catalytic subunit of PP2A from MDA-MB-231 cells exposed to EGF and two different concentrations of COG445. The blot is probed for I2PP2A (SET) and PP2A catalytic subunit.
(§2) To examine the mechanism of COG445 on PP2A activity, recombinant human PP2A catalytic subunit was incubated with COG445 and activity was measured. […] To further explore the changes of PP2A protein complexes, co-immunoprecipitation experiments were performed on MB231 cells.

normal B-cells = test: Cytotoxicity on normal B-cells from volunteers; assay type: cell-based, human
Protocol: Blood from CLL patients was collected and CD5+/CD19+ CLL cells were isolated using the RosetteSep™ Human B-Cell Enrichment Cocktail, according to the manufacturer's instructions, and treated with COG compounds. Compounds were applied to B-CLL cells (2.5×10^5 cells/well in a 96 well plate), after which the cells were treated for 72 hours.
Normal B-cells from volunteers and B-CLL cells from patients are isolated using the RosetteSep™ Human B Cell Enrichment Cocktail according to the manufacturer's instructions. This method depletes whole blood of T cells, monocytes, and NK cells using a proprietary antibody cocktail that cross-links unwanted cells in human whole blood to multiple red blood cells (RBCs) forming immunorosettes. This increases the density of the unwanted (rosetted) cells, such that they pellet along with the free RBCs when centrifuged over a buoyant density medium such as Ficoll-Paque®. This leaves the highly enriched B-cell or B-CLL cells at the interface between Ficoll and the plasma. The antibodies in the cocktail contain anti-CD14, anti-CD2 and anti-CD16 antibodies to remove T cells, monocytes, and NK cells, respectively. The purity of these B-cell and B-CLL preparations is then determined by flow cytometry. Preparations typically average less than 2% CD3+ T-cells and less than 0.5% CD14+ monocytes. In the case of B-CLL cell isolation, we routinely obtain preparations that contain less than 1.5% normal CD19+/CD5− B-cells using this method.

[2] = Cytotoxicity on normal B-cells from volunteers; assay type: cell-based, human; conditions: human, normal B-cells from volunteers
PP2A [3] = test: Phosphatase activity of PP2A immunoprecipitated from MDA-MB-231 cells; assay type: cell-based; conditions: concentrations ≧100 nM, EGF-stimulated MB231
Source text: as §1
(§3) To further characterize the effect of COG445 on PP2A activity, MB231 cells were treated as above and the phosphatase activity of immunoprecipitated PP2A was measured. EGF stimulation caused a significant decrease in total PP2A activity compared to untreated serum starved cells (FIG. 12A). […] To further explore the extent of PP2A activation in response to COG445, total c-myc protein levels were determined by western blot analysis. C-myc is a substrate for PP2A and upon dephosphorylation is metabolized by ubiquitination and proteasomal degradation. In both U87 (FIG. 12B) and MB231 (data not shown) cell lines, c-myc levels decreased after a two-hour exposure to COG445 in a dose-dependent manner, reaching statistical significance at 1000 nM.

c-myc = test: Total c-myc protein levels, Western blot; assay type: cell-based
Source text: as §1, §3

mTOR = mTOR phosphorylation in MB231 cells, Western blot; assay type: cell-based; conditions: markedly reduced at ≧100 nM
Source text: FIG. 13A: Western blot and densitometry analysis of phosphorylated m-TOR levels in MDA-MB-231 cells treated with EGF and the indicated concentrations of COG445 in the presence or absence of okadaic acid. FIG. 13B: Western blot analysis of phosphorylated GSK-3β levels in MDA-MB-231 cells treated with EGF and the indicated concentrations of COG445 in the presence or absence of okadaic acid.
Akt exerts its proliferative signal by phosphorylating protein substrates such as mTOR and GSK-3β. To examine the effects of COG445 on downstream Akt signaling in MB231 cells, mTOR activation and GSK-3β inhibition was measured by western blot analysis. […] The reduction in mTOR and GSK-3β phosphorylation was eliminated in the presence of okadaic acid, further evidence that PP2A mediates the effects of COG445 on Akt signaling.

[4] = Mouse toxicity, maximum tolerated dose by intravenous injection; conditions: in vivo, maximum dose by intravenous injection without deaths after 24 hrs
PP2A [5] = test: PP2A activity in 32D:BCR/Abl chronic myelogenous leukemia cells (PP2A immunoprecipitation assay); assay type: cell-based; conditions: 1 μM, 32D:BCR/Abl cells
Protocol: FIGS. 4A-4B. The BMOE-linked dimer peptide COG449 activates PP2A in CML cells. FIG. 4A: 32D-BCR/Abl chronic myelogenous leukemia cells were treated with COG449 (1 μM), COG445 (1 μM) (disulfide-linked COG112 dimer) or no treatment, and the PP2A activity was measured. FIG. 4B: 32D:BCR/Abl cell cultures were treated with no compound, 1 μM COG449, or 5 μM FTY720 for 30 minutes followed by lysis in an NP40 lysis buffer. PP2A was immunoprecipitated and assayed with the PP2A Immunoprecipitation assay kit (Upstate) according to the manufacturer's directions.
To further evaluate the effect of COG449, we measured the ability of the stable dimerized COG449 compound to activate PP2A in 32D:p210^BCR/Abl chronic myelogenous leukemia cells. […] 32D:p210^BCR/Abl chronic myelogenous leukemia cells were treated with no compound, 1 μM COG449, or 5 μM FTY720. We observed a robust increase of approximately 45% relative specific activity (phosphate release/minute/unit protein) of PP2A upon treatment with COG449 alone when compared to the untreated control, and about 20% activation compared with FTY720 (FIG. 4B).

PDK1 = PDK1 activation, Western blot; assay type: cell-based; conditions: U87 and MB231
Source text: FIGS. 10A-10B. […] FIG. 10A: Western blot analysis of U87 glioblastoma cells exposed to the indicated concentrations of COG445 peptide in the presence of EGF. The blot is probed with antibodies for the activated EGF receptor (P-EGFR), total EGF receptor, activated PDK1 (P-PDK1), and total PDK1. FIG. 10B: Western blot and densitometry analysis of Akt activation induced by EGF in U87 cells in the presence of increasing concentrations of COG445.
Akt signaling is often dysregulated in cancers thereby promoting cellular survival and proliferation. […] Given the effect of ApoE peptides on other inflammatory pathologies, we investigated the effect of an ApoE peptide dimer on Akt signaling in breast and brain cancer cells. A disulfide dimer of COG112 (SEQ ID NO: 1) was prepared as described in Example 1 (COG445). Adherent breast cancer cells, MDA-MB-231 (MB231), or glioblastoma cells, U87-MG (U87), were serum starved overnight and then exposed to COG445 for 2 hours before stimulating with epidermal growth factor (EGF) for 5 minutes. […] EGFR activation results in the activation of the PI3K/Akt signaling pathway, which is mediated by PDK1 activation.

[6] = target: recombinant human PP2A catalytic subunit (Homo sapiens, UniProt P67775); test: Recombinant human PP2A catalytic subunit activity; assay type: biochemical; conditions: up to 10 μM
Sequence of recombinant human PP2A catalytic subunit (P67775 whole entry): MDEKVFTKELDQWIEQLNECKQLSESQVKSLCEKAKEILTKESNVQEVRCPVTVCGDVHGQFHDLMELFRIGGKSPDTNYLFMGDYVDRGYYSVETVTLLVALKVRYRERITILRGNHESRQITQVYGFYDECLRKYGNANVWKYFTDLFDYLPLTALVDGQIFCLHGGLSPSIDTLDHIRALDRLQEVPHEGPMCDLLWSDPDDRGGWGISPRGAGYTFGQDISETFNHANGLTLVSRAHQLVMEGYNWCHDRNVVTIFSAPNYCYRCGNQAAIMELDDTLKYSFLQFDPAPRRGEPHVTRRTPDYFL
Protocol: as §2

I: Ac-RQIKIWFQNRRMKWKKCLRVRLASHLRKLRKRLL-NH2 / II: Ac-RQIKIWFQNRRMKWKKCLRVRLASHLRKLRKRLL-NH2 (disulfide I:17-II:17) [COG445, COG112-C-C-COG112]
association of I2PP2A to the catalytic subunit of PP2A [1]: strongly diminished
EC50 normal B-cells relative to CLL cells (normal B-cells): ~200 fold
EC50 at 72 h [2]: > 10 µM
PP2A activity (PP2A [3]): significant (P<0.01) increase
c-myc levels in the presence of OA (c-myc): unaltered
c-myc levels (c-myc; two-hour exposure, U87 and MB231, significant at 1000 nM): decreased
mTOR phosphorylation upon EGF stimulation (mTOR): dose-dependent decrease
MTD at 24 h [4]: 28 mg/kg
phosphate release due to activation of PP2A relative to untreated control cells (PP2A [5]): increased phosphate release
PDK1 activation (serine 241 phosphorylation) (PDK1): did not alter
rate of phosphatase activity [6]: did not have any effect
